# Laboratory results reported in patent US7754741B2, “Pyridine derivatives as fungicidal compounds” (Bayer Cropscience S.A., priority 2003, dated 2010).
# What was measured:
# Conditions in all cases: 330 ppm; comparison compounds of WO 01/11965
# Alternaria brassicae = assay: In vivo test on Alternaria brassicae (leaf spot of crucifers)
# Protocol: In Vivo Test on Alternaria brassicae (Leaf Spot of crucifers)
# (§1) The active ingredient tested is prepared by potter homogenisation in a concentrated suspension type formulation at 100 g/l. This suspension is then diluted with water to obtain the desired active material concentration.
# Radish plants (Pernot variety) in starter cups, sown on a 50/50 peat soil-pozzolana substrate and grown at 18-20° C., are treated at the cotyledon stage by spraying with the aqueous suspension described above.
# (§2) Plants, used as controls, are treated with an aqueous solution not containing the active material.
# After 24 hours, the plants are contaminated by spraying them with an aqueous suspension of Alternaria brassicae spores (40,000 spores per cm^3). The spores are collected from a 12-13-day-old culture.
# The contaminated radish plants are incubated for 6-7 days at about 18° C., under a humid atmosphere.
# Grading is carried out 6 to 7 days after the contamination, in comparison with the control plants.
# Peronospora brassicae = assay: In vivo test on Peronospora brassicae (cabbage downy mildew)
# Protocol: In Vivo Test on Peronospora brassicae (Cabbage Downy Mildew)
# as §1
# Cabbage plants (Eminence variety) in starter cups, sown on a 50/50 peat soil-pozzolana substrate and grown at 18-20° C., are treated at the cotyledon stage by spraying with the aqueous suspension described above.
# as §2
# After 24 hours, the plants are contaminated by spraying them with an aqueous suspension of Peronospora brassicae spores (50,000 spores per ml). The spores are collected from infected plant.
# The contaminated cabbage plants are incubated for 5 days at 20° C., under a humid atmosphere.
# Grading is carried out 5 days after the contamination, in comparison with the control plants.
# Under these conditions, good (at least 50%) to total protection is observed at a dose of 330 ppm with the following compounds :B-6,B-7, J-46, J-59.
# Pyrenophora teres = assay: In vivo test on Pyrenophora teres (barley net blotch)
# Protocol: In Vivo Test on Pyrenophora teres (Barley Net Blotch)
# as §1
# (§3) Barley plants (Express variety) in starter cups, sown on a 50/50 peat soil-pozzolana substrate and grown at 12° C., are treated at the 1-leaf stage (10 cm tall) by spraying with the aqueous suspension described above. Plants, used as controls, are treated with an aqueous solution not containing the active material.
# After 24 hours, the plants are contaminated by spraying them with an aqueous suspension of Pyrenophora teres spores (12,000 spores per ml). The spores are collected from a 12-day-old culture The contaminated barley plants are incubated for 24 hours at about 20° C. and at 100% relative humidity, and then for 12 days at 80% relative humidity.
# Botrytis cinerea = assay: In vivo test on Botrytis cinerea (cucumber grey mould)
# Protocol: In Vivo Test on Botrytis cinerea (Cucumber Grey Mould)
# as §1
# as §3, with “Cucumber” for “Barley”, “(Marketer” for “(Express”, “18-20°” for “12°”, “cotyledon Z11” for “1-leaf”, “stage” for “stage (10 cm tall)”
# After 24 hours, the plants are contaminated by depositing drops of an aqueous suspension of Botrytis cinerea spores (150,000 spores per ml) on upper surface of the leaves. The spores are collected from a 15-day-old culture and are suspended in a nutrient solution composed of: • 20 g/L of gelatin • 50 g/L of cane sugar • 2 g/L of NH4NO3 • 1 g/L of KH2PO4
# The contaminated cucumber plants are settled for 5/7 days in a climatic room at 15-11° C. (day/night) and at 80% relative humidity.
# Grading is carried out 5/7 days after the contamination, in comparison with the control plants. Under these conditions, good (at least 50%) to total protection is observed at a dose of 330 ppm with the following compounds :B-7, B-8, B-13, B-14, C-3, C-12, C-13, C-14, C-15, C-16, D-4, D-5, E-4, H-1, H-2, H-4, H-7, H-9, H-22, J-1, J-2, J-3, J-19, J-31, J-32, J-33, J-34, J-35, J-37, J-39, J-43, J-44, R-1, R-10, R-23, R-24, R-26, R-31, V-1, V-8.
SMILES,efficacy against Alternaria brassicae (Alternaria brassicae),efficacy against Peronospora parasitica (Peronospora brassicae),efficacy against Pyrenophora teres (Pyrenophora teres),efficacy against Botrytis cinerea (Botrytis cinerea)
"CCNC(=O)C(Cc1ncc(C(F)(F)F)cc1Cl)NC(=O)c1ccccc1Br (stereo not drawn) [compound 310, N-{1-ethylcarbamoyl-2-[3-chloro-5-(trifluoromethyl)-2-pyridinyl]ethyl}-2-bromobenzamide, reference compound]",poor efficacy,no efficacy,poor efficacy,no efficacy
"CCNC(=O)C(Cc1ncc(C(F)(F)F)cc1Cl)NC(=O)c1cccc([N+](=O)[O-])c1 (stereo not drawn) [compound 307, N-{1-ethylcarbamoyl-2-[3-chloro-5-(trifluoromethyl)-2-pyridinyl]ethyl}-3-nitrobenzamide, reference compound]",poor efficacy,no efficacy,poor efficacy,no efficacy
"O=C(Cc1cccs1)NCc1ncc(C(F)(F)F)cc1Cl [compound 101, N-{[3-chloro-5-(trifluoromethyl)-2-pyridinyl]-methyl}-5-thienylacetamide, reference compound]",poor efficacy,no efficacy,–,no efficacy
"CNC(=O)C(Cc1ncc(C(F)(F)F)cc1Cl)NC(=O)c1ccc(-c2ccccc2)cc1 (stereo not drawn) [compound 316, N-{1-methylcarbamoyl-2-[3-chloro-5-(trifluoromethyl)-2-pyridinyl]ethyl}-4-phenylbenzamide, reference compound]",poor efficacy,no efficacy,poor efficacy,no efficacy
